According to DBAASP:
≈ marks a conversion by molar mass, not a printed value.

What was measured:
Experiment in all cases: ≥ marks a high value that may be exact or a test limit, other limits are often not marked, values filed in µg/mL are converted to µM
[1] = system: Pseudomonas aeruginosa ATCC 9027
[2] = system: Staphylococcus aureus ATCC 6538
[3] = system: Staphylococcus aureus ATCC 25923
[4] = system: Escherichia coli UB1005
[5] = system: Staphylococcus epidermidis ATCC 12228
[6] = system: Salmonella enterica subsp. enterica serovar Typhimurium C77-31
[7] = system: Escherichia coli ATCC 25922
[8] = system: Staphylococcus aureus ATCC 29213
[9] = system: Klebsiella pneumoniae ATCC 700603
[10] = system: Acinetobacter baumannii
[11] = system: Acinetobacter baumannii ATCC 19606
[12] = system: Escherichia coli
[13] = system: Bacillus subtilis
[14] = system: Enterococcus faecalis ATCC 29212
[15] = system: Staphylococcus aureus
[16] = system: Pseudomonas aeruginosa

Row | SMILES | MIC [1] [µM] | MIC [2] [µM] | MIC [3] [µM] | MIC [7] [µM] | MIC [10] [µM] | also measured
1 | CC(C)C[C@H](NC(=O)[C@H](C)NC(=O)[C@H](CCCCN)NC(=O)[C@H](C)NC(=O)[C@H](CC(C)C)NC(=O)[C@H](CCCCN)NC(=O)[C@H](CCCCN)NC(=O)[C@H](C)NC(=O)[C@H](CC(C)C)NC(=O)[C@H](CCCCN)NC(=O)[C@H](CCCCN)NC(=O)[C@H](C)NC(=O)[C@@H](N)Cc1ccccc1)C(N)=O [FAKKLAKKLAKAL] | 3.5 (≈ 5 µg/mL) | 10.5 (≈ 15 µg/mL) | – | – | – | –
2 | CC[C@H](C)[C@H](NC(=O)CNC(=O)[C@H](CC(C)C)NC(=O)[C@H](CCCCN)NC(=O)[C@H](C)NC(=O)[C@H](CC(C)C)NC(=O)[C@H](C)NC(=O)[C@@H](NC(=O)[C@H](CCCCN)NC(=O)[C@H](C)NC(=O)[C@@H](NC(=O)[C@@H](N)CCCCN)[C@@H](C)CC)C(C)C)C(=O)NCC(=O)N[C@@H](C)C(=O)N[C@H](C(=O)N[C@@H](CC(C)C)C(=O)N[C@@H](CCCCN)C(=O)N[C@H](C(=O)N[C@@H](CC(C)C)C(=O)N[C@H](C(=O)N[C@H](C(=O)NCC(=O)N[C@@H](CC(C)C)C(N)=O)[C@@H](C)O)[C@@H](C)O)C(C)C)C(C)C [KIAKVALAKLGIGAVLKVLTTGL] | 87.8 (≈ 200 µg/mL) | 87.8 (≈ 200 µg/mL) | – | – | – | –
3 | CC[C@H](C)[C@H](NC(=O)[C@H](Cc1c[nH]c2ccccc12)NC(=O)[C@H](CCCCN)NC(=O)[C@H](CC(C)C)NC(=O)[C@@H](NC(=O)[C@H](CCCCN)NC(=O)CNC(=O)[C@@H](NC(=O)[C@@H](NC(=O)[C@H](CCCCN)NC(=O)[C@H](CC(C)C)NC(=O)[C@@H](NC(=O)[C@@H](NC(=O)[C@H](CCCN=C(N)N)NC(=O)[C@@H](NC(=O)[C@@H](NC(=O)[C@H](CCCCN)NC(=O)[C@H](CCCN=C(N)N)NC(=O)[C@H](CC(C)C)NC(=O)[C@@H](NC(=O)[C@H](CCCN=C(N)N)NC(=O)[C@H](Cc1ccccc1)NC(=O)[C@@H](NC(=O)CN)C(C)C)C(C)C)C(C)C)[C@@H](C)O)C(C)C)C(C)C)C(C)C)[C@@H](C)CC)C(C)C)C(N)=O [GVFRVLRKVTRVVLKVIGKVLKWI] | – | – | 2 (≈ 5.61 µg/mL) | 2 (≈ 5.61 µg/mL) | – | MIC [4]: 4 µM (≈ 11.2 µg/mL); MIC [5]: 2 µM (≈ 5.61 µg/mL); MIC [6]: 4 µM (≈ 11.2 µg/mL); MIC [8]: 2 µM (≈ 5.61 µg/mL)
4 | CSCC[C@H](NC(=O)[C@H](CC(C)C)NC(=O)[C@H](CCCCN)NC(=O)CNC(=O)[C@H](C)NC(=O)[C@H](C)NC(=O)[C@H](CCCN=C(N)N)NC(=O)[C@H](Cc1ccccc1)NC(=O)[C@H](CC(C)C)NC(=O)[C@@H](NC(=O)[C@H](Cc1c[nH]c2ccccc12)NC(=O)[C@@H](NC(=O)[C@@H](N)CCCCN)C(C)C)[C@@H](C)O)C(=O)N[C@@H](C)C(=O)N[C@@H](CCCCN)C(N)=O [KVWTLFRAAGKLMAK] | > 25 | – | > 25 | > 25 | 25 (≈ 43 µg/mL) | MIC [9]: > 25 µM
5 | CC(C)C[C@H](NC(=O)[C@H](C)NC(=O)[C@H](CCCCN)NC(=O)[C@H](CCCCN)NC(=O)[C@H](Cc1ccccc1)NC(=O)[C@H](C)NC(=O)[C@H](CCCCN)NC(=O)[C@H](C)NC(=O)[C@H](CC(C)C)NC(=O)[C@H](CC(C)C)NC(=O)[C@H](CCCCN)NC(=O)[C@H](C)NC(=O)[C@@H](N)Cc1ccccc1)C(N)=O [FAKLLAKAFKKAL] | 10.4 (≈ 15 µg/mL) | 34.5 (≈ 50 µg/mL) | – | – | – | –
6 | CC[C@H](C)[C@H](NC(=O)[C@H](CCCN=C(N)N)NC(=O)[C@@H](NC(=O)[C@@H](NC(=O)[C@@H]1CCCN1C(=O)[C@@H](NC(=O)[C@@H](NC(=O)[C@@H](NC(=O)[C@@H]1CCCN1C(=O)CNC(=O)[C@H](Cc1ccc(O)cc1)NC(=O)[C@H](CCCCN)NC(=O)[C@H](CCCCN)NC(=O)[C@H](Cc1c[nH]c2ccccc12)NC(=O)[C@H](C)NC(=O)[C@H](CCCN=C(N)N)NC(=O)[C@H](CC(C)C)NC(=O)[C@@H](NC(=O)[C@H](CCCCN)NC(=O)[C@H](CCCN=C(N)N)NC(=O)CNC(=O)[C@H](CC(C)C)NC(=O)[C@H](CCCCN)NC(=O)[C@H](CCCN=C(N)N)NC(=O)[C@H](CC(C)C)NC(=O)CNC(=O)CN)[C@@H](C)CC)[C@@H](C)CC)[C@@H](C)CC)C(C)C)[C@@H](C)CC)[C@@H](C)CC)C(=O)O [GGLRKLGRKILRAWKKYGPIIVPIIRI] | – | – | – | – | 6.42 (≈ 20 µg/mL) | MIC [11]: 3.21 µM (≈ 10 µg/mL)
7 | CC[C@H](C)[C@H](N)C(=O)N[C@@H](CC(N)=O)C(=O)N[C@@H](Cc1c[nH]c2ccccc12)C(=O)N[C@@H](CC(C)C)C(=O)N[C@@H](CCCCN)C(=O)N[C@@H](CC(C)C)C(=O)NCC(=O)N[C@@H](CCCCN)C(=O)N[C@@H](CCCCN)C(=O)N[C@@H](CCSC)C(=O)N[C@@H](CCSC)C(=O)N[C@@H](CO)C(=O)N[C@@H](C)C(=O)N[C@H](C(N)=O)[C@@H](C)CC [INWLKLGKKMMSAI] | – | – | – | – | – | MIC [12]: 70 µM (≈ 114 µg/mL); MIC [13]: ≥ 35 µM
8 | CC(C)C[C@H](NC(=O)[C@H](CCCCN)NC(=O)[C@H](CCCCN)NC(=O)[C@H](C)NC(=O)[C@H](CC(C)C)NC(=O)[C@H](CCCCN)NC(=O)[C@H](C)NC(=O)[C@H](CC(C)C)NC(=O)[C@H](CCCCN)NC(=O)[C@H](CCCCN)NC(=O)[C@H](C)NC(=O)[C@@H](N)Cc1ccccc1)C(N)=O [FAKKLAKLAKKL] | 18.4 (≈ 25 µg/mL) | 73.6 (≈ 99.9 µg/mL) | – | – | – | –
9 | CC[C@H](C)[C@H](NC(=O)[C@H](CCCCN)NC(=O)[C@H](CCCCN)NC(=O)[C@H](CC(C)C)NC(=O)[C@H](CCCN=C(N)N)NC(=O)[C@@H]1CSSC[C@H](NC(=O)[C@H](CCCN=C(N)N)NC(=O)[C@H](CC(C)C)NC(=O)[C@H](CCCN=C(N)N)NC(=O)[C@H](CCCN=C(N)N)NC(=O)[C@H](Cc2ccccc2)NC(=O)[C@@H](N)CCCN=C(N)N)C(=O)N[C@@H](CCCCN)C(=O)N[C@@H]([C@@H](C)O)C(=O)N[C@@H](CCCN=C(N)N)C(=O)N1)C(N)=O [RFRRLRCKTRCRLKKI] | – | – | – | – | – | MIC [4]: ≥ 128 µM; MIC [5]: > 128 µM; MIC [6]: ≥ 128 µM; MIC [14]: > 128 µM; MIC [8]: > 128 µM
10 | CC(C)C[C@H](NC(=O)[C@H](CCCCN)NC(=O)[C@H](CCCCN)NC(=O)[C@H](C)NC(=O)[C@H](CC(C)C)NC(=O)[C@H](CCCCN)NC(=O)[C@H](C)NC(=O)[C@H](CC(C)C)NC(=O)[C@H](CC(C)C)NC(=O)[C@H](CCCCN)NC(=O)[C@H](C)NC(=O)[C@@H](N)Cc1ccccc1)C(N)=O [FAKLLAKLAKKL] | 149 (≈ 200 µg/mL) | 7.44 (≈ 9.99 µg/mL) | – | – | – | –
11 | CC[C@H](C)[C@H](N)C(=O)N[C@H](C(=O)N[C@@H](CCCCN)C(=O)N[C@@H](Cc1c[nH]c2ccccc12)C(=O)N[C@@H](CC(C)C)C(=O)N[C@@H](CC(C)C)C(=O)N[C@@H](CC(N)=O)C(=O)N[C@@H](C)C(=O)N[C@H](C(=O)N[C@@H](CCCCN)C(=O)N[C@@H](CCCCN)C(=O)NCC(=O)N[C@@H](Cc1ccccc1)C(=O)N[C@@H](CCCCN)C(=O)N[C@@H](CC(C)C)C(=O)O)[C@@H](C)CC)[C@@H](C)O [ITKWLLNAIKKGFKL] | 64 (≈ 113 µg/mL) | – | 64 (≈ 113 µg/mL) | 64 (≈ 113 µg/mL) | ≥ 32 | MIC [9]: 64 µM (≈ 113 µg/mL)
12 | CC(C)[C@H](NC(=O)[C@H](CCCN=C(N)N)NC(=O)[C@H](Cc1c[nH]c2ccccc12)NC(=O)[C@H](CCCN=C(N)N)NC(=O)[C@@H](NC(=O)[C@H](CCCN=C(N)N)NC(=O)[C@H](Cc1c[nH]c2ccccc12)NC(=O)[C@H](CCCN=C(N)N)NC(=O)[C@@H](NC(=O)[C@H](CCCN=C(N)N)NC(=O)[C@@H](N)Cc1c[nH]c2ccccc12)C(C)C)C(C)C)C(=O)N[C@@H](CCCN=C(N)N)C(N)=O [WRVRWRVRWRVR] | – | – | 2 (≈ 3.62 µg/mL) | 4 (≈ 7.24 µg/mL) | 2 (≈ 3.62 µg/mL) | MIC [12]: 2 µM (≈ 3.62 µg/mL); MIC [15]: 1 µM (≈ 1.81 µg/mL); MIC [4]: 2 µM (≈ 3.62 µg/mL); MIC [5]: 2 µM (≈ 3.62 µg/mL); MIC [16]: 4 µM (≈ 7.24 µg/mL); MIC [6]: 4 µM (≈ 7.24 µg/mL); MIC [8]: 1 µM (≈ 1.81 µg/mL)
